According to PMC3247980 (The Journal of Biological Chemistry, 2011):

Assays:
PfFT2 = target: T1, PfFT2 (Plasmodium falciparum, UniProt Q8IIK1); experiment: [3H]folinic acid uptake, Xenopus oocytes; format: cell-based; conditions: labelled compound, 40 min, pH 7.4, room temperature
T1 sequence (Q8IIK1 1-455): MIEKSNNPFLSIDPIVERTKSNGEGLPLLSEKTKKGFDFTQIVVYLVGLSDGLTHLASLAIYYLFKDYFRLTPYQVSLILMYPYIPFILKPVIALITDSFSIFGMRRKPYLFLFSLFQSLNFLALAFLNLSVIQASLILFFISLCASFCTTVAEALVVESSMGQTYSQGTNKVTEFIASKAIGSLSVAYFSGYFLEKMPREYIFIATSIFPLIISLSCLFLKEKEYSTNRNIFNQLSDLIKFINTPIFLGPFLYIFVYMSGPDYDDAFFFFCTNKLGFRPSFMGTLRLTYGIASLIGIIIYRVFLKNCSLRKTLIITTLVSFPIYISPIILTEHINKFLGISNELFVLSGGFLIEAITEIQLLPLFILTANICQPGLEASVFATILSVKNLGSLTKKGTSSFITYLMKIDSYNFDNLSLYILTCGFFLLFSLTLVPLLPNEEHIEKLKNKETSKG

PfFT1 = target: T2, PfFT1 (Plasmodium falciparum, UniProt Q8IBB7); experiment: [3H]folinic acid uptake, Xenopus oocytes; format: cell-based; conditions: labelled compound, 40 min, pH 7.4, room temperature
T2 sequence (Q8IBB7 1-505): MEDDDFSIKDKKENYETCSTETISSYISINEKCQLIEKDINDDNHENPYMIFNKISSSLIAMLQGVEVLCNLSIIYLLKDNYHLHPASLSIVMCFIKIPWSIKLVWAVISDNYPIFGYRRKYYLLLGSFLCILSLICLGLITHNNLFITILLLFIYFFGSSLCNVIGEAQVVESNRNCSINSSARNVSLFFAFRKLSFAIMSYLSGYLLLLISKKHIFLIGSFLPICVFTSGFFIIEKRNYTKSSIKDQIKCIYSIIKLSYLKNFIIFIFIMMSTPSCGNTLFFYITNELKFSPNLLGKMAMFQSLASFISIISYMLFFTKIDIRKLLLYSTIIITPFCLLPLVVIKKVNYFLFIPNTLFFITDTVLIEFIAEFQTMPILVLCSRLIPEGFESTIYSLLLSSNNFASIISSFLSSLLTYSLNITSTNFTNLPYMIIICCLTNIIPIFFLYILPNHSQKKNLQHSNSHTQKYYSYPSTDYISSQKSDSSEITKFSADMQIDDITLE

Nc1nc(=O)c2c([nH]1)NCC(CNc1ccc(C(=O)N[C@@H](CCC(=O)O)C(=O)O)cc1)N2C=O (mixture of isomers) [folinic acid]
[3H]folinic acid uptake, Xenopus oocytes (PfFT2): cRNA from PfFT1 and PfFT2 showed significantly higher uptake of [^3H]folinic acid
[3H]folinic acid uptake, Xenopus oocytes (PfFT1): cRNA from PfFT1 and PfFT2 showed significantly higher uptake of [^3H]folinic acid
